Consider 23 molecules from US20240287124A1, “PRODRUGS OF 4'-SUBSTITUTED NUCLEOSIDE REVERSE TRANSCRIPTASE INHIBITORS” (Merck Sharp & Dohme LLC, priority 2023, published 2024).

A word on the solubility: it is the concentration that dissolves in the medium under given conditions. For orientation: IC50 means the midpoint of a concentration-inhibition curve.

Converted amounts (≈) assume the structure as drawn. Read-outs that look alike come from different tables or passages of the source.

Data set [1] in a line: Aqueous solubility in PBS, pH 7.4. The format is physicochemical. To be noted: for solubility at 24 h: phosphate buffered saline, pH 7.4, aqueous buffer, thermodynamic from solid, pH 7.4 phosphate buffered saline, amorphous or crystalline material, read-out: Aqu. Solubility. The procedure: Aqueous solubility of the compounds was determined by suspending excess solid (typically 0.3-0.5 mg) in PBS, pH 7.4, at a concentration of 0.5 mg/mL. The suspension was vortexed for 10-30 seconds to wet the material and stirred at 600 rpm for 24 hours. For analysis by UPLC, 150 μL aliquot sample was transferred into a […] PVDF spin filter and centrifuged at 14,000 rpm for 5 minutes. 100 μL of the filtrate was diluted with 100 μL 1:1 Acetonitrile (ACN):H2O. The resultant samples were analyzed using UPLC and quantified against a standard curve of the compound of interest dissolved in 1:1 ACN:H2O. The retains of the solids were checked by XRPD and PLM to determine if the phase of the material was crystalline or amorphous.

For data set [2], the system named is HIV-1 wild-type (R8) virus. Description: Viral KINetics in Green cells (VIKING) assay, HIV-1 replication in MT4-GFP reporter cells. In kind it is cell-based. The procedure:
Antiviral potency of the compounds was determined based on their ability to block HIV-1 replication in a GFP reporter cell line; this assay is referred to as Viral KINetics in Green cells or VIKING assay. HIV-1 replication was monitored using MT4-gag-GFP clone D3 (hereafter designate MT4-GFP) cells, which are MT4 cells modified to harbor a GFP reporter gene, the expression of which is dependent on the HIV-1 proteins tat and rev. (MT4 is a human T-cell line that is particularly sensitive to HIV-1 replication.) HIV-1 infection of MT4-GFP cells results in GFP expression approximately 24 h post-infection. MT4-GFP cells were maintained at 37° C./5% CO2/90% relative humidity in RPMI 1640 supplemented with 10% fetal bovine serum, 100 U/mL penicillin/streptomycin, and […] G418 to maintain the reporter gene. For infections, MT4-GFP cells were placed in the same medium lacking G418 and infected overnight with HIV-1 wild-type (R8) virus at an approximate multiplicity of infection of 0.01 in the same incubation conditions. Cells were then washed and resuspended in RPMI 1640 containing 10% normal human serum at 2×10^5 cells/mL. Compound plates were prepared by dispensing compounds dissolved in DMSO into wells of 384-well poly D lysine-coated plates (0.2 μl/well) using an ECHO acoustic dispenser. Each compound was tested in a 10-point serial 3-fold dilution (typical final concentrations: 4 μM-0.2 nM). Controls included no inhibitor (DMSO only) and a combination of three antiviral agents as a positive control (efavirenz, indinavir, and an integrase strand transfer inhibitor at final concentrations of 4 μM each). Infected cells were added (50 μL/well) to compound plates and were maintained at 37° C./5% CO2/90% relative humidity. Infected cells were quantified at two time points, approximately 48 h and 72 h post-infection, by counting the number of green cells in each well using an Acumen eX3 scanner. The increase in the number of green cells over ˜24 h period gives the reproductive ratio, R, which is calculated by dividing the number of green cells at 72 h over those at 48 h post-infection. The percent inhibition caused by a test compound is calculated using the following formula: […]
The dose-response curves of each test compound were plotted as % inhibition versus the compound concentration. IC50 values were determined by non-linear 4-parameter fitting of the dose-response curves.

Setting [3] is: Human immunodeficiency virus 1, 10% normal human serum, MT4-GFP cells, HIV-1 wild-type (R8), read-out: Viking (10% NHS), IC50.

The molecule `C#C[C@]1(CO)O[C@@H](n2ccc3c(N)nc(Cl)nc32)C[C@@H]1O` [Compound A, (2R,3S,5R)-5-(4-amino-2-chloro-7H-pyrrolo[2,3-d]pyrimidin-7-yl)-2-ethynyl-2-(hydroxymethyl)tetrahydrofuran-3-ol, reference compound] displayed a solubility in data set [1] (water, in water) of 500 µg/mL (≈ 1620 µM). In addition, the IC50 in data set [2] (Human immunodeficiency virus 1, parent compound, read-out: IC50 in the Viking assay) is 3.3 nM. Take `C#C[C@]1(CO)O[C@@H](n2ccc3c(N)nc(Cl)nc32)C[C@@H]1OC(=O)CCCCCCCCC` [Example 4, (2R,3S,5R)-5-(4-amino-2-chloro-7H-pyrrolo[2,3-d]pyrimidin-7-yl)-2-ethynyl-2-(hydroxymethyl)tetrahydrofuran-3-yl decanoate]: in data set [1], the solubility at 24 h was less than 1 µg/mL. Further, the IC50 in data set [2] (setting [3]) came out at 2.9 nM. For `C#C[C@]1(CO)O[C@@H](n2ccc3c(N)nc(Cl)nc32)C[C@@H]1OC(=O)OCCCCCCCCCC` [Example 10, (2R,3S,5R)-5-(4-amino-2-chloro-7H-pyrrolo[2,3-d]pyrimidin-7-yl)-2-ethynyl-2-(hydroxymethyl)tetrahydrofuran-3-yl decyl carbonate], in that order: less than 1 µg/mL and 9.9 nM.

As for `C#C[C@]1(CO)O[C@@H](n2ccc3c(N)nc(Cl)nc32)C[C@@H]1OC(=O)OCCCCC` [Example 13, (2R,3S,5R)-5-(4-amino-2-chloro-7H-pyrrolo[2,3-d]pyrimidin-7-yl)-2-ethynyl-2-(hydroxymethyl)tetrahydrofuran-3-yl pentyl carbonate], the solubility at 24 h in data set [1] amounted to 1.9 µg/mL (≈ 4.49 µM). Moreover, the IC50 in data set [2] (setting [3]) amounted to 2.2 nM. As to `C#C[C@]1(COC(=O)CCCCCCCCCCCCCCC)O[C@@H](n2ccc3c(N)nc(Cl)nc32)C[C@@H]1O` [Example 16, ((2R,3S,5R)-5-(4-amino-2-chloro-7H-pyrrolo[2,3-d]pyrimidin-7-yl)-2-ethynyl-3-hydroxytetrahydrofuran-2-yl)methyl palmitate], in data set [1], the solubility at 24 h is less than 1 µg/mL. Further, the IC50 in data set [2] (setting [3]) turned out to be 5.6 nM. On to `C#C[C@]1(COC(=O)Oc2ccccc2)O[C@@H](n2ccc3c(N)nc(Cl)nc32)C[C@@H]1O` [Example 17, ((2R,3S,5R)-5-(4-amino-2-chloro-7H-pyrrolo[2,3-d]pyrimidin-7-yl)-2-ethynyl-3-hydroxytetrahydrofuran-2-yl)methyl phenyl carbonate], for which the solubility at 24 h in data set [1] turned out to be 164 µg/mL (≈ 382 µM). The IC50 in data set [2] (setting [3]) was 1.4 nM. `C#C[C@]1(COC(=O)OCCCCCCCCCC)O[C@@H](n2ccc3c(N)nc(Cl)nc32)C[C@@H]1O` [Example 18, ((2R,3S,5R)-5-(4-amino-2-chloro-7H-pyrrolo[2,3-d]pyrimidin-7-yl)-2-ethynyl-3-hydroxytetrahydrofuran-2-yl)methyl decyl carbonate]: the solubility at 24 h in data set [1] came out at 0.45 µg/mL (≈ 0.913 µM). Further, the IC50 in data set [2] (setting [3]) turned out to be 2.1 nM. Take `C#C[C@]1(CO)O[C@@H](n2ccc3c(NC(=O)c4ccccc4)nc(Cl)nc32)C[C@@H]1O` [Example 19, N-(2-chloro-7-((2R,4S,5R)-5-ethynyl-4-hydroxy-5-(hydroxymethyl)tetrahydrofuran-2-yl)-7H-pyrrolo[2,3-d]pyrimidin-4-yl)benzamide]: in data set [1], the solubility at 24 h came to 34 µg/mL (≈ 82.4 µM). In addition, the concentration for half-maximal inhibition (IC50) in data set [2] (setting [3]) is 382 nM. Turning to `C#C[C@]1(COC(=O)CCCCCCCCC)O[C@@H](n2ccc3c(N)nc(Cl)nc32)C[C@@H]1O` [Example 20, ((2R,3S,5R)-5-(4-amino-2-chloro-7H-pyrrolo[2,3-d]pyrimidin-7-yl)-2-ethynyl-3-hydroxytetrahydrofuran-2-yl)methyl decanoate], the solubility at 24 h in data set [1] is less than 1 µg/mL. Besides, the IC50 in data set [2] (setting [3]) was 2.8 nM. On the same counts, the results for `C#C[C@]1(CO)O[C@@H](n2ccc3c(NC(=O)CCCCCCCCCCC)nc(Cl)nc32)C[C@@H]1O` [Example 21, N-(2-chloro-7-((2R,4S,5R)-5-ethynyl-4-hydroxy-5-(hydroxymethyl)tetrahydrofuran-2-yl)-7H-pyrrolo[2,3-d]pyrimidin-4yl)dodecanamide] are less than 1 µg/mL and 18 nM. On the same counts, the results for `C#C[C@]1(CO)O[C@@H](n2ccc3c(NC(=O)CCCC)nc(Cl)nc32)C[C@@H]1O` [Example 22, N-(2-chloro-7-((2R,4S,5R)-5-ethynyl-4-hydroxy-5-(hydroxymethyl)tetrahydrofuran-2-yl)-7H-pyrrolo[2,3-d]pyrimidin-4-yl)pentanamide] are 362 µg/mL (≈ 921 µM) and 199 nM. Regarding `C#C[C@]1(CO)O[C@@H](n2ccc3c(N)nc(Cl)nc32)C[C@@H]1OC(=O)CCCCCCC` [Example 24, (2R,3S,5R)-5-(4-amino-2-chloro-7H-pyrrolo[2,3-d]pyrimidin-7-yl)-2-ethynyl-2-(hydroxymethyl)tetrahydrofuran-3-yl octanoate], the solubility at 24 h in data set [1] is less than 1 µg/mL. Further, in data set [2] (setting [3]), the IC50 was 1.7 nM.

With `C#C[C@]1(CO)O[C@@H](n2ccc3c(N)nc(Cl)nc32)C[C@@H]1OC(=O)CCCCCCCCCCC` [Example 25, (2R,3S,5R)-5-(4-amino-2-chloro-7H-pyrrolo[2,3-d]pyrimidin-7-yl)-2-ethynyl-2-(hydroxymethyl)tetrahydrofuran-3-yl dodecanoate], the solubility at 24 h in data set [1] stood at 2 µg/mL (≈ 4.07 µM). Besides, the concentration for half-maximal inhibition (IC50) in data set [2] (setting [3]) turned out to be 3.5 nM. For `C#C[C@]1(CO)O[C@@H](n2ccc3c(N)nc(Cl)nc32)C[C@@H]1OC(=O)CCCCCCCCCCCCC` [Example 26, (2R,3S,5R)-5-(4-amino-2-chloro-7H-pyrrolo[2,3-d]pyrimidin-7-yl)-2-ethynyl-2-(hydroxymethyl)tetrahydrofuran-3-yl tetradecanoate], the solubility at 24 h in data set [1] is less than 1 µg/mL. In addition, the half-inhibitory concentration (IC50) in data set [2] (setting [3]) was determined as 7 nM. For the molecule `C#C[C@]1(CO)O[C@@H](n2ccc3c(N)nc(Cl)nc32)C[C@@H]1OC(=O)OCc1ccccc1` [Example 27, (2R,3S,5R)-5-(4-amino-2-chloro-7H-pyrrolo[2,3-d]pyrimidin-7-yl)-2-ethynyl-2-(hydroxymethyl)tetrahydrofuran-3-ylbenzyl carbonate], in data set [1], the solubility at 24 h was less than 1 µg/mL. Further, the IC50 in data set [2] (setting [3]) stood at 3.1 nM.

Consider `C#C[C@]1(CO)O[C@@H](n2ccc3c(N)nc(Cl)nc32)C[C@@H]1OC(=O)c1ccccn1` [Example 28, (2R,3S,5R)-5-(4-amino-2-chloro-7H-pyrrolo[2,3-d]pyrimidin-7-yl)-2-ethynyl-2-(hydroxymethyl)tetrahydrofuran-3-yl picolinate], for which the solubility at 24 h in data set [1] was 68 µg/mL (≈ 164 µM). Also, the IC50 in data set [2] (setting [3]) was 4.3 nM. For `C#C[C@]1(CO)O[C@@H](n2ccc3c(N(C(=O)OCCCCCCCCCCCC)C(=O)OCCCCCCCCCCCC)nc(Cl)nc32)C[C@@H]1O` [Example 218], the IC50 in data set [2] (setting [3]) was greater than 4030 nM. As for `C#C[C@]1(CO)O[C@@H](n2ccc3c(NC(=O)OCCCCCCCCCCCC)nc(Cl)nc32)C[C@@H]1O` [Example 219], the IC50 in data set [2] (setting [3]) was determined as 2410 nM. Turning to `C#C[C@]1(CO)O[C@@H](n2ccc3c(N(C(=O)OCCCCCCCCCC)C(=O)OCCCCCCCCCC)nc(Cl)nc32)C[C@@H]1O` [Example 220], in data set [2] (setting [3]), the IC50 is 615 nM. Same read-out and setting: with `C#C[C@]1(CO)O[C@@H](n2ccc3c(NC(=O)OCCCCCC)nc(Cl)nc32)C[C@@H]1O` [Example 221] the figure was 710 nM. Still for that read-out and setting: to `C#C[C@]1(CO)O[C@@H](n2ccc3c(N(C(=O)OCCCCCC)C(=O)OCCCCCC)nc(Cl)nc32)C[C@@H]1O` [Example 222] belongs 1370 nM; to `C#C[C@]1(CO)O[C@@H](n2ccc3c(NC(=O)OCCCCCCCC)nc(Cl)nc32)C[C@@H]1O` [Example 223], 411 nM; to `C#C[C@]1(CO)O[C@@H](n2ccc3c(N(C(=O)OCCCCCCCC)C(=O)OCCCCCCCC)nc(Cl)nc32)C[C@@H]1O` [Example 224], 842 nM.
